Experimental data published in US20230203096A1, “EPHA4 TARGETING COMPOUNDS AND METHODS OF USE THEREOF” (priority 2020, published 2023).
Square brackets hold non-standard residues; d marks the D form. Peptide text beside a SMILES is read from it. * marks the point of attachment. Cyclohexanoyl(1S,3S-3-NH2) = N[C@H]1CCC[C@H](C(=O)*)C1; Trp(5-OH) = N[C@@H](Cc1c[nH]c2ccc(O)cc12)C(=O)O; NH(4-morpholinophenyl) = c1cc(N2CCOCC2)ccc1N*; Bip = N[C@@H](Cc1ccc(-c2ccccc2)cc1)C(=O)O; hArg = N=C(N)NCCCC[C@H](N)C(=O)O

Tests used:
[1] = tested on: primary spinal cord motor neurons; assay: Growth cone collapse in primary spinal cord motor neurons; details: 1 μM and 10 μM 150D4, 2 DIV neurons
[2] = tested on: mouse motor neurons co-cultured with iAstrocytes derived from sALS patients; assay: Co-culture of sALS patient derived iAstrocytes and motor neurons (motor neuron survival); type: cell-based; details: 10 μM
Text: EphA4 has been directly implicated in the progression of ALS in mice models and in human genetic studies. While the mechanisms for onset and progression of ALS remain largely undetermined, astrocytes have been implicated as significant contributors to motor neuron death in both in familial ALS (fALS), that is driven by inactivating mutations within the superoxide dismutase 1 (SOD1) gene and that account for less than 2% of all ALS cases, (Di Giorgio et al., Nat Neurosci, 10 (5): 608-614, (2007); Nagai et al., Nat Neurosci, 10 (5): 615-622, (2007); Yamanaka et al., Nat Neurosci, 11 (3): 251-253, (2008)) and the more common sporadic form of ALS (sALS). […] Recently, it was shown that astrocytes derived from both patient groups are similarly toxic to motor neurons (Haidet-Phillips et al., Nat Biotechnol, 29 (9): 824-828, (2011)).
Induced Astrocytes were generated by seeding a low quantity of NPCs into astrocyte medium (DMEM media containing 10% FBS and 0.2% N2) for five days. Following differentiation, iAstrocytes were lifted and seeded into a 96 well (10,000 cells per well).
Cells are sorted through a 100 micron tip with sheath pressure of 27. GFP+ motor neurons were seeded in a 96 well plate (10,000 cells per well). Co-cultures were imaged with InCell for up to three days. Motor neurons with neurite outgrowth of greater than 50 um were counted as alive.

N=C(N)NCCCC[C@H](NC(=O)[C@H](Cc1ccc(-c2ccccc2)cc1)NC(=O)[C@H](Cc1c[nH]c2ccc(O)cc12)NC(=O)[C@H]1CCC[C@H](N)C1)C(=O)NCC(=O)Nc1ccc(N2CCOCC2)cc1 [Compound 8, (1S,3S)—N—((S)-1-(((S)-3-([1,1′-biphenyl]-4-yl)-1-(((S)-6-guanidino-1-((2-((4-morpholinophenyl)amino)-2-oxoethyl)amino)-1-oxohexan-2-yl)amino)-1-oxopropan-2-yl)amino)-3-(5-hydroxy-1H-indol-3-yl)-1-oxopropan-2-yl)-3-aminocyclohexane-1-carboxamide] ({Cyclohexanoyl(1S,3S-3-NH2)}-[Trp(5-OH)][Bip][hArg]G-{NH(4-morpholinophenyl)}) was tested, and the growth cone collapse [1] was “effective in inducing growth cone collapse” and the “protection of motor neurons from sALS astrocytes-induced death” value [2] was “able to protect mouse motor neurons from iAstrocytes derived from sALS patients”.
